Measured values published in patent publication US9617283B2, “Bicyclic heterocycle compounds and their uses in therapy” (ASTEX THERAPEUTICS LIMITED, priority 2012, dated 2017).
Structures can show the parent of a compound that is named as a salt. Where two headings read alike, the source gives them in different places.

Test system: EVSA-T (human breast carcinoma)
Experiment: Anti-proliferative activity, Alamar Blue assay, EVSA-T
Format: cell-based
[1] = Homo sapiens, EVSA-T, 72 h, EVSA-T cell line, 72 hours, Alamar Blue; read-out: EVSA-T prolif
[2] = Homo sapiens, EVSA-T; read-out: EC50 in EVSA-T cell line assays
[3] = Homo sapiens; EVSA-T cell line, 72 hours, Alamar Blue; read-out: EVSA-T prolif

EC50 [2] [nM] | Structure (SMILES) | other results
< 1000 | C[C@@H]1CN(CC(=O)N2CC(C)(C)c3ncc(Cc4ccc(F)cc4)cc32)[C@@H](CN2C[C@H](C)N(C)CC2=O)CN1 [Example 43, (5S)-1-{[(2R,5R)-1-(2-{6-[(4-Fluorophenyl)methyl]-3,3-dimethyl-1H,2H,3H-pyrrolo[3,2-b]pyridin-1-yl}-2-oxoethyl)-5-methylpiperazin-2-yl]methyl}-4,5-dimethylpiperazin-2-one dihydrochloride] | EC50 [1]: 12 nM
< 1000 | C[C@H]1CC(=O)N(C[C@H]2CN[C@H](C)CN2CC(=O)N2CC(C)(C)c3nnc(Cc4ccc(F)cc4F)cc32)C1 [Example 46, (4S)-1-{[(2R,5R)-1-(2-{3-[(2,4-Difluorophenyl)methyl]-7,7-dimethyl-5H,6H,7H-pyrrolo[3,2-c]pyridazin-5-yl}-2-oxoethyl)-5-methylpiperazin-2-yl]methyl}-4-methylpyrrolidin-2-one dihydrochloride] | EC50 [1]: 2.3 nM
< 1000 | C[C@H]1CC(=O)N(C[C@H]2CN[C@H](C)CN2CC(=O)N2CC(C)(C)c3nnc(Cc4ccc(F)cc4)cc32)C1 [Example 47, (4S)-1-{[(2R,5R)-1-(2-{3-[(4-Fluorophenyl)methyl]-7,7-dimethyl-5H,6H,7H-pyrrolo[3,2-c]pyridazin-5-yl}-2-oxoethyl)-5-methylpiperazin-2-yl]methyl}-4-methylpyrrolidin-2-one dihydrochloride] | EC50 [1]: 2.9 nM
< 1000 | C[C@@H]1CN(CC(=O)N2CC(C)(C)c3nnc(Cc4ccc(F)cc4F)cc32)[C@@H](CN2C[C@H](C)OCC2=O)CN1 [Example 52, (6S)-4-{[(2R,5R)-1-(2-{3-[(2,4-Difluorophenyl)methyl]-7,7-dimethyl-5H,6H,7H-pyrrolo[3,2-c]pyridazin-5-yl}-2-oxoethyl)-5-methylpiperazin-2-yl]methyl}-6-methylmorpholin-3-one] | 
< 1000 | CCCC(F)(F)c1cc2c(nn1)C(C)(C)CN2C(=O)CN1C[C@@H](C)NC[C@@H]1CN1CC(C)(C)CC1=O [Example 55, 1-{[(2R,5R)-1-{2-[3-(1,1-Difluorobutyl)-7,7-dimethyl-5H,6H,7H-pyrrolo[3,2-c]pyridazin-5-yl]-2-oxoethyl}-5-methylpiperazin-2-yl]methyl}-4,4-dimethylpyrrolidin-2-one] | 
< 1000 | CCCC(F)(F)c1cc2c(nn1)C(C)(C)CN2C(=O)CN1C[C@@H](C)NC[C@@H]1CN1C[C@H](C)OCC1=O [Example 57, (6S)-4-{[(2R,5R)-1-{2-[3-(1,1-Difluorobutyl)-7,7-dimethyl-5H,6H,7H-pyrrolo[3,2-c]pyridazin-5-yl]-2-oxoethyl}-5-methylpiperazin-2-yl]methyl}-6-methylmorpholin-3-one] | 
< 1000 | CCCC(F)(F)c1cc2c(nn1)C(C)(C)CN2C(=O)CN1C[C@@H](C)NC[C@@H]1CN1C(=O)CO[C@@H](C)[C@H]1C [Example 58, (5R,6S)-4-{[(2R,5R)-1-{2-[3-(1,1-Difluorobutyl)-7,7-dimethyl-5H,6H,7H-pyrrolo[3,2-]pyridazin-5-yl]-2-oxoethyl}-5-methylpiperazin-2-yl]methyl}-5,6-dimethylmorpholin-3-one] | 
< 1000 | C[C@@H]1CN(CC(=O)N2CC(C)(C)c3nnc(Cc4ccc(F)cc4)cc32)[C@@H](CN2Cc3ncccc3C2=O)CN1 [Example 65, 6-{[(2R,5R)-1-(2-{3-[(4-Fluorophenyl)methyl]-7,7-dimethyl-5H,6H,7H-pyrrolo[3,2-c]pyridazin-5-yl}-2-oxoethyl)-5-methylpiperazin-2-yl]methyl}-5H,6H,7H-pyrrolo[3,4-b]pyridin-5-one] | 
< 1000 | CCCC(F)(F)c1cnc2c(c1)N(C(=O)CN1C[C@@H](C)NC[C@@H]1CN1Cc3ncccc3C1=O)CC2(C)C [Example 66, 6-{[(2R,5R)-1-{2-[6-(1,1-Difluorobutyl)-3,3-dimethyl-1H,2H,3H-pyrrolo[3,2-b]pyridin-1-yl]-2-oxoethyl}-5-methylpiperazin-2-yl]methyl}-5H,6H,7H-pyrrolo[3,4-b]pyridin-5-one] | 
< 1000 | CCCC(F)(F)c1cc2c(nn1)C(C)(C)CN2C(=O)CN1C[C@@H](C)NC[C@@H]1CN1Cc2ncccc2C1=O [Example 67, 6-{[(2R,5R)-1-{2-[3-(1,1-Difluorobutyl)-7,7-dimethyl-5H,6H,7H-pyrrolo[3,2-c]pyridazin-5-yl]-2-oxoethyl}-5-methylpiperazin-2-yl]methyl}-5H,6H,7H-pyrrolo[3,4-b]pyridin-5-one] | 
< 1000 | C[C@@H]1CN(CC(=O)N2CC(C)(C)c3ncc(Cc4ccc(F)cc4)cc32)[C@@H](CN2CC(C)(C)OCC2=O)CN1 [Example 97, 4-{[(2R,5R)-1-(2-{6-[(4-Fluorophenyl)methyl]-3,3-dimethyl-1H,2H,3H-pyrrolo[3,2-b]pyridin-1-yl}-2-oxoethyl)-5-methylpiperazin-2-yl]methyl}-6,6-dimethylmopholin-3-one dihydrochloride] | EC50 [1]: 9 nM
< 1000 | COC[C@@H]1CN(C[C@H]2CN[C@H](C)CN2CC(=O)N2CC(C)(C)c3nnc(Cc4ccc(F)cc4F)cc32)C(=O)CO1 [Example 101, (6S)-4-{[(2R,5R)-1-(2-{3-[(2,4-Difluorophenyl)methyl]-7,7-dimethyl-5H,6H,7H-pyrrolo[3,2-c]pyridazin-5-yl}-2-oxoethyl)-5-methylpiperazin-2-yl]methyl}-6-(methoxymethyl)morpholin-3-one dihydrochloride] | EC50 [1]: 25 nM

More lines, now with the values behind:

Structure (SMILES) | EC50 [2] [nM] | other results
C[C@@H]1CN(CC(=O)N2CC(C)(C)c3nnc(Cc4ccc(F)cc4)cc32)[C@@H](CN2C[C@H](C)OCC2=O)CN1 [Example 53, (6S)-4-{[(2R,5R)-1-(2-{3-[(4-Fluorophenyl)methyl]-7,7-dimethyl-5H,6H,7H-pyrrolo[3,2-c]pyridazin-5-yl}-2-oxoethyl)-5-methylpiperazin-2-yl]methyl}-6-methylmorpholin-3-one] | < 1000 | 
C[C@@H]1CN(CC(=O)N2CC(C)(C)c3nnc(Cc4ccc(F)cc4)cc32)[C@@H](CN2Cc3ccccc3C2=O)CN1 [Example 61, 2-{[(2R,5R)-1-(2-{3-[(4-Fluorophenyl)methyl]-7,7-dimethyl-5H,6H,7H-pyrrolo[3,2-c]pyridazin-5-yl}-2-oxoethyl)-5-methylpiperazin-2-yl]methyl}-2,3-dihydro-1H-isoindol-1-one dihydrochloride] |  | EC50 [3]: 1.5 nM
C[C@@H]1CN(CC(=O)N2CC(C)(C)c3ncc(Cc4ccc(F)cc4F)cc32)[C@@H](CN2Cc3ncccc3C2=O)CN1 [Example 62, 6-{[(2R,5R)-1-(2-{6-[(2,4-Difluorophenyl)methyl]-3,3-dimethyl-1H,2H,3H-pyrrolo[3,2-b]pyridin-1-yl}-2-oxoethyl)-5-methylpiperazin-2-yl]methyl}-5H,6H,7H-pyrrolo[3,4-b]pyridin-5-one] | < 1000 | 
C[C@@H]1CN(CC(=O)N2CC(C)(C)c3cnc(Cc4ccc(F)cc4F)cc32)[C@@H](CN2Cc3ncccc3C2=O)CN1 [Example 63, 6-{[(2R,5R)-1-(2-{6-[(2,4-Difluorophenyl)methyl]-3,3-dimethyl-1H,2H,3H-pyrrolo[3,2-c]pyridin-1-yl}-2-oxoethyl)-5-methylpiperazin-2-yl]methyl}-5H,6H,7H-pyrrolo[3,4-b]pyridin-5-one] | < 1000 | 
C[C@@H]1CN(CC(=O)N2CC(C)(C)c3nnc(Cc4ccc(F)cc4F)cc32)[C@@H](CN2Cc3ncccc3C2=O)CN1 [Example 64, 6-{[(2R,5R)-1-(2-{3-[(2,4-Difluorophenyl)methyl]-7,7-dimethyl-5H,6H,7H-pyrrolo[3,2-c]pyridazin-5-yl}-2-oxoethyl)-5-methylpiperazin-2-yl]methyl}-5H,6H,7H-pyrrolo[3,4-b]pyridin-5-one] | < 1000 | 
C[C@@H]1CN(CC(=O)N2CC(C)(C)c3ncc(Cc4ccc(F)cc4F)cc32)[C@@H](CN2Cc3ccccc3C2=O)CN1 [Example 76, 2-{[(2R,5R)-1-(2-{6-[(2,4-Difluorophenyl)methyl]-3,3-dimethyl-1H,2H,3H-pyrrolo[3,2-b]pyridin-1-yl}-2-oxoethyl)-5-methylpiperazin-2-yl]methyl}-2,3-dihydro-1H-isoindol-1-one dihydrochloride] |  | EC50 [3]: 2.5 nM
C[C@@H]1CN(CC(=O)N2CC(C)(C)c3nnc(Cc4ccc(F)cc4F)cc32)[C@@H](CN2Cc3ccccc3C2=O)CN1 [Example 79, 2-{[(2R,5R)-1-(2-{3-[(2,4-Difluorophenyl)methyl]-7,7-dimethyl-5H,6H,7H-pyrrolo[3,2-c]pyridazin-5-yl}-2-oxoethyl)-5-methylpiperazin-2-yl]methyl}-2,3-dihydro-1H-isoindol-1-one dihydrochloride] |  | EC50 (Homo sapiens, EVSA-T, read-out: EC50 in EVSA-T cell line assays): < 1000 nM; EC50 [3]: 0.2 nM
C[C@@H]1CN(CC(=O)N2CC(C)(C)c3nnc(Cc4ccc(F)cc4F)cc32)[C@@H](CN2Cc3ccc(F)cc3C2=O)CN1 [Example 93, 2-{[(2R,5R)-1-(2-{3-[(2,4-Difluorophenyl)methyl]-7,7-dimethyl-5H,6H,7H-pyrrolo[3,2-c]pyridazin-5-yl}-2-oxoethyl)-5-methylpiperazin-2-yl]methyl}-6-fluoro-2,3-dihydro-1H-isoindol-1-one dihydrochloride] |  | EC50 [3]: 0.5 nM
COc1ccc2c(c1)CN(C[C@H]1CN[C@H](C)CN1CC(=O)N1CC(C)(C)c3ncc(Cc4ccc(F)cc4)cc31)C2=O [Example 94, 2-{[(2R,5R)-1-(2-{6-[(4-Fluorophenyl)methyl]-3,3-dimethyl-1H,2H,3H-pyrrolo[3,2-b]pyridin-1-yl}-2-oxoethyl)-5-methylpiperazin-2-yl]methyl}-5-methoxy-2,3-dihydro-1H-isoindol-1-one dihydrochloride] |  | EC50 [3]: 4.8 nM
C[C@@H]1CN(CC(=O)N2CC(C)(C)c3ncc(Cc4ccc(F)cc4)cc32)[C@@H](CN2Cc3cccnc3C2=O)CN1 [Example 95, 6-{[(2R,5R)-1-(2-{6-[(4-Fluorophenyl)methyl]-3,3-dimethyl-1H,2H,3H-pyrrolo[3,2-b]pyridin-1-yl}-2-oxoethyl)-5-methylpiperazin-2-yl]methyl}-5H,6H,7H-pyrrolo[3,4-b]pyridin-7-one dihydrochloride] |  | EC50 [3]: 0.71 nM
